One series concerns RNA versus DNA. Nature of the series: Screening of fluorescence properties and relative fluorescence enhancement with RNA versus DNA (Table 3). It counts as binding. The settings on record: for Fluorescence Enhancement Ratio (RNA/DNA): fluorescence enhancement when associated with RNA to that when associated with DNA.
Series [1] concerns Bovine pulmonary arterial endothelial cells. Briefly: Cell permeability and nucleic acid label pattern with a concentration series in live cells (Example 43). The format is cell-based. As for the experimental part:
Bovine pulmonary arterial endothelial cells were grown in media for one day after plating on coverslips, then labeled with 50 nM MitoTracker Red CMXRos (Molecular Probes, Inc., M7512) in Hank's balanced salt solution (HBSS) with HEPES for general mitochondrial labeling. After washing in HBSS, cells were then labeled with Compound 1 at various concentrations ranging from 100 nM up to 10 μM in media for 20 minutes at 37°. Cells were washed well with HBSS. Coverslips were examined mounted in warm HBSS on a Nikon Eclipse 800 upright fluorescent microscope and imaged with a FITC filter set, a Princeton Instruments MicroMax cooled CCD camera, and Universal Imaging MetaMorph imaging software. […] The mtDNA signal was localized within mitochondria, as evidenced by MitoTracker Red labeling.

The subject of series [2] is Gram-positive (Staphylococcus aureus) and Gram-negative (Eshcerichia coli) bacteria. Nature of the series: Rifampicin-depletion of bacterial RNA, flow cytometry and microplate reader (Example 37). The format is cell-based. Conditions: 25 μg/mL rifampicin one hour; compound 0.25, 0.5 or 1 μM, 10-15 minutes. On the procedure: Gram-positive (Staphylococcus aureus) and Gram-negative (Eshcerichia coli) bacteria in growth medium were treated with 25 μg/mL rifampicin for one hour. Treated and untreated bacteria were counted, diluted to 1×10^7 bacteria/mL in 0.85% NaCl, and 1 mL aliquots incubated with 0.25 μM, 0.5 μM, or 1 μM Compound 6 or Compound 9 for 10-15 minutes protected from light. The samples were analyzed by flow cytometry and then 100 μL volumes were transferred to a microplate in triplicate and analyzed by a microplate reader. The fluorescence intensity was corrected against the dye in solution, which was weakly fluorescent.
In general terms: Flow cytometry measures light scatter and fluorescence of single cells or particles in a stream.

In series [3] the test system is Bovine pulmonary arterial endothelial cells. Nature of the series: Nucleic acid binding on RNase and DNase treated formaldehyde-fixed eukaryotic cells (Example 39). The format is cell-based. Conditions: Compound 6 687 nM, Compound 19 1 μM. On the procedure: (§1) Bovine pulmonary arterial endothelial cells were grown in media for one day after plating and then fixed fifteen minutes in 4% paraformaldehyde. Cells were washed 3×5 minutes in PBT (0.05M phosphate-buffered saline (PBS) containing 0.1% Triton X-100) and then treated with RNase (from Roche, at 1:500 dilution) or DNase (from Promega, at 1:100 dilution), or both for 2 hours at 37° C. Cells were washed again for 3×5 minutes in PBT and then labeled with Compound 6 at 687 nM concentration or Compound 19 at 1 μM concentration in PBS for 20 minutes. Cells were washed 3×10 minutes in PBS and mounted on microscope slides in ProLong antifade mounting medium (Molecular Probes, Inc.). After the mountant had hardened, slides were examined on a Nikon Eclipse 800 upright fluorescent microscope and imaged with a FITC filter set, a Princeton Instrument MicroMax cooled CCD camera, and Universal Imaging MetaMorph imaging software. […] See, FIG. 5.

The test system is the same in series [4]. Briefly: Nucleic acid binding after RNase and DNase on methanol-fixed eukaryotic cells (Example 38). The format is cell-based. Conditions: control to test the activity of the DNase; printed as treated with RNase. On the procedure:
as §1, with “ten” for “fifteen”, “100% methanol at −20° C.” for “4% paraformaldehyde.”, “dilution)” for “dilution), or both”, “concentration” for “concentration or Compound 19 at 1 μM concentration in PBS”, “medium.” for “medium (Molecular Probes, Inc.).”, “4.” for “5.”

The structures appear in SMILES notation. A value given as a limit tells only on which side of the number the result lay.

As to `C[n+]1c(/C=C2\C=C(SCCCCCCCCCSC3=C/C(=C\c4sc5ccccc5[n+]4C)c4ccccc4N3c3ccccc3)N(c3ccccc3)c3ccccc32)sc2ccccc21` [Compound 1], in the series with RNA versus DNA, the “Fluorescence Enhancement Ratio (RNA/DNA)” value was 1.0. In series [1] (20 minutes at 37°), the “staining pattern at 1 μM” value is on record as “nuclear labeling was seen as well as mtDNA”; the “staining pattern at 3 μM or higher” value is “mtDNA labeling was lost, replaced with ubiquitous cytoplasmic labeling and strong nuclear labeling”. Also, in series [1] (20 minutes at 37°, MitoTracker Red co-label), the “staining pattern at 100 nM to 500 nM” value was “mitochondrial DNA (mtDNA), with no nuclear label, or cytoplasmic background”. Further, the “concentration at which mitochondrial morphology was disrupted” value in series [1] (as evidenced with MitoTracker Red) was at least 3 μM.

`C[n+]1c(/C=C2\C=C(Sc3nnc(SC4=C/C(=C\c5sc6ccccc6[n+]5C)c5ccccc5N4c4ccccc4)s3)N(c3ccccc3)c3ccccc32)sc2ccccc21.[Cl-].[Cl-]` [Compound 7]: the “Fluorescence Enhancement Ratio (RNA/DNA)” value in the series with RNA versus DNA is on record as 2.3.

As for `CN1/C(=C\c2c/c(=N/C3CCC(/N=c4/cc(/C=C5/Sc6ccccc6N5C)c5ccccc5n4-c4ccccc4)CC3)n(-c3ccccc3)c3ccccc23)Sc2ccccc21` (stereo not drawn) [Compound 8], the “Fluorescence Enhancement Ratio (RNA/DNA)” value in the series with RNA versus DNA is 4.9.

As to `CN1/C(=C\c2c/c(=N/N3CCN(/N=c4/cc(/C=C5/Sc6ccccc6N5C)c5ccccc5n4-c4ccccc4)CC3)n(-c3ccccc3)c3ccccc23)Sc2ccccc21` [Compound 9], the “fluorescent signal of rifampicin treated versus untreated bacteria” value in series [2] is listed as “decrease in fluorescent signal after removal of mRNA”. In addition, the “Fluorescence Enhancement Ratio (RNA/DNA)” value in the series with RNA versus DNA is recorded as 1.7.

Regarding `C[n+]1c(/C=C2\C=C(N(CCC[N+](C)(C)C)CCC[N+](C)(C)C)N(CCCCCCCCCCN3C(N(CCC[N+](C)(C)C)CCC[N+](C)(C)C)=C/C(=C\c4sc5ccccc5[n+]4C)c4ccccc43)c3ccccc32)sc2ccccc21.Cl.Cl` [Compound 13], in the series on RNA versus DNA, the “Fluorescence Enhancement Ratio (RNA/DNA)” value was 2.5.

Turning to `C[n+]1c(/C=C2\C=C(N3CCNCCN(C4=C/C(=C\c5sc6ccccc6[n+]5C)c5ccccc5N4c4ccccc4)CCNCC3)N(c3ccccc3)c3ccccc32)sc2ccccc21.[Cl-].[Cl-]` [Compound 15], the “Fluorescence Enhancement Ratio (DNA/RNA)” value with RNA versus DNA (fluorescence enhancement when associated with DNA to that when associated with RNA) amounted to 3.7.

With `C[n+]1c(/C=C/C=C2/C=CN(c3ccccc3)C(N3CCN(C4=C/C(=C\C=C\c5sc6ccccc6[n+]5C)C=CN4c4ccccc4)CC3)=C2)sc2ccccc21` [Compound 18], the “Fluorescence Enhancement Ratio (RNA/DNA)” value in the series with RNA versus DNA is 1.3.

`COc1ccc2c(c1)N(c1ccccc1)C(N1CCN(C3=C/C(=C\c4sc5ccccc5[n+]4C)c4ccc(OC)cc4N3c3ccccc3)CC1)=C/C2=C\c1sc2ccccc2[n+]1C.[I-].[I-]` [Compound 19]: the “Fluorescence Enhancement Ratio (RNA/DNA)” value in the series on RNA versus DNA came to 4.9. For the same compound, in series [3], the “cytoplasmic label after DNase” value is on record as “not reduced at all”, the “cytoplasmic label after RNase” value is given as “not reduced at all”, the “labeling of nucleoli after RNase” value is “eliminated” and the “nuclear labeling after DNase” value was “not DNase”. For the same compound, in series [3], the “nuclear labeling after RNase” value is on record as “significantly reduced with RNase” and the “nucleolar intensity after DNase” value is “significantly reduced”.

As to `CN1/C(=C\c2ccn(-c3ccccc3)/c(=N\N3CCN(/N=c4/cc(/C=C5/Sc6ccccc6N5C)c5ccccc5n4-c4ccccc4)CC3)c2)Sc2ccccc21` [Compound 25], the “Fluorescence Enhancement Ratio (RNA/DNA)” value in the series on RNA versus DNA stood at 5.6.

Consider `N=C(N)c1ccc(-c2cc3ccc(C(=N)N)cc3[nH]2)cc1` [DAPI, reference compound], for which, in series [4], the “label intensity of DNA label control after nuclease treatment” value is on record as “significant decline in label intensity”.

The values are drawn from patent US8242251B2, “Unsymmetrical cyanine dimer compounds and their application” (Life Technologies Corporation, priority 2003, dated 2012).
